The results in this text go back to ChEMBL document CHEMBL6153099, “Fatuamide A, a Hybrid PKS/NRPS Metallophore from a Leptolyngbya sp. Marine Cyanobacterium Collected in American Samoa” (J Nat Prod, 2025).

The source made the active and inactive calls. No cut-off for these calls is given here.

In one test the test system is RAW264.7. Briefly: Antiinflammatory activity in LPS-induced mouse RAW264.7 cells assessed as reduction in NO production at 10 to 30 microg/ml preincubated for 24 hrs by Griess reagent based assay. The class given is functional, cell-based. The settings on record: dose 10-30 µg/ml.
Another test deals with NCI-H460. Briefly: Cytotoxicity against human NCI-H460 cells at 2 to 60000 nM incubated for 48 hrs by MTT assay. It counts as functional, cell-based. The settings on record: dose 2-60000 nM. A general note: Formazan colour is commonly taken as a measure of viable cells.

Take `C[C@H](C[C@@H](C)CCC(=O)N[C@@H](Cc1ccccc1)[C@H](O)C[C@H](O)CC(=O)N[C@@H](Cc1ccccc1)[C@H](O)CC(=O)NCC(=O)O)C[C@@H]1CSC(c2ccccc2O)=N1`: in the test on RAW264.7, the outcome was inactive. In the test with NCI-H460, the result was Active.
